Test results taken from US20160120865A1, “TOPICAL TREATMENT OF LOCALIZED SCLERODERMA” (PRECISION DERMATOLOGY, INC., priority 2013, published 2016).

Tested on: TGFβ activated genes
Experiment: TGF-β osmotic pump mouse skin model, gene expression by nanostring
Format: in vivo, C57BL/6 mice
Parameters: key to Adam12 expression, TGFb/TGFbimatinib / spp1 expression, TGFb/TGFbimatinib / Thbs1 expression, TGFb/TGFbimatinib / Col1a1 expression, TGFb/TGFbimatinib / Sfrp2 expression, TGFb/TGFbimatinib / acta2 expression, TGFb/TGFbimatinib / Angpt2 expression, TGFb/TGFbimatinib / lox expression, TGFb/TGFbimatinib / Fmod expression, TGFb/TGFbimatinib / Wisp1 expression, TGFb/TGFbimatinib / serpine1 expression, TGFb/TGFbimatinib: TGFβ treatment works and the effect is blocked by imatinib in the local skin (+); DS+ skin (−)
Conditions: for serpine1 expression, TGFb/TGFbimatinib / Adam12 expression, TGFb/TGFbimatinib / spp1 expression, TGFb/TGFbimatinib / Thbs1 expression, TGFb/TGFbimatinib / Col1a1 expression, TGFb/TGFbimatinib / Sfrp2 expression, TGFb/TGFbimatinib / acta2 expression, TGFb/TGFbimatinib / Angpt2 expression, TGFb/TGFbimatinib / lox expression, TGFb/TGFbimatinib / Fmod expression, TGFb/TGFbimatinib / Wisp1 expression, TGFb/TGFbimatinib: imatinib cream topical 2 times per day, 7 days; for serpine1 expression, TGFb/TGFbimatinib: FIG. 3; for Adam12 expression, TGFb/TGFbimatinib: FIG. 4; for spp1 expression, TGFb/TGFbimatinib: FIG. 5; for Thbs1 expression, TGFb/TGFbimatinib: FIG. 6; for Col1a1 expression, TGFb/TGFbimatinib: FIG. 7; for Sfrp2 expression, TGFb/TGFbimatinib: FIG. 8; for acta2 expression, TGFb/TGFbimatinib: FIG. 9; for Angpt2 expression, TGFb/TGFbimatinib: FIG. 10; for lox expression, TGFb/TGFbimatinib: FIG. 11; for Fmod expression, TGFb/TGFbimatinib: FIG. 12; for Wisp1 expression, TGFb/TGFbimatinib: FIG. 13
Experimental: C57BL/6 mice were obtained from The Jackson Laboratory (Bar Harbor, Me.). Osmotic pumps (Alzet, model 2001) designed to deliver 1 μL/h were loaded with TGF-β (1.25 μg) in phosphate buffered saline (PBS) supplemented with 0.1 mg/mL bovine serum albumin (BSA). Pumps were implanted subcutaneously in 8-week-old mice, who were subsequently treated with imatinib or placebo cream. After […], mice were sacrificed, and the skin (˜1 cm^2) surrounding the pump outlet was homogenized in TRIzol (Invitrogen) for preparation of RNA, or fixed in formalin. Skin from mice treated with PBS and TGF-β was analyzed using nanostring technology. A set of 50 genes including inflammatory genes, macrophages markers, TGF-β-regulated genes, and others were analyzed. 100 ng of RNA per sample was used and gene expression was normalized to the expression of 8 housekeeping-genes.
TGFb 2.5 μg/mL in 7 day Alzet pump.
imatinib cream topical application 7 days (2 times per day)
(3) −DS=Far from local skin

`Cc1ccc(NC(=O)c2ccc(CN3CCN(C)CC3)cc2)cc1Nc1nccc(-c2cccnc2)n1` [imatinib] was tested, and the “serpine1 expression, TGFb/TGFbimatinib” value (DS+ (near local skin)) was “(−)”, the “Adam12 expression, TGFb/TGFbimatinib” value (DS+ (near local skin)) was “(−)” and the “spp1 expression, TGFb/TGFbimatinib” value (DS+ (near local skin)) was “(−)”. For the same compound, the “Thbs1 expression, TGFb/TGFbimatinib” value (DS+ (near local skin)) was “(−)”, the “Col1a1 expression, TGFb/TGFbimatinib” value (DS+ (near local skin)) was “(−)” and the “Sfrp2 expression, TGFb/TGFbimatinib” value (DS+ (near local skin)) was “(−)”. For the same compound, the “acta2 expression, TGFb/TGFbimatinib” value (DS+ (near local skin)) was “(−)”, the “Angpt2 expression, TGFb/TGFbimatinib” value (DS+ (near local skin)) was “(−)” and the “lox expression, TGFb/TGFbimatinib” value (DS+ (near local skin)) was “(−)”. For the same compound, the “Fmod expression, TGFb/TGFbimatinib” value (DS+ (near local skin)) was “(−)”, the “Wisp1 expression, TGFb/TGFbimatinib” value (DS+ (near local skin)) was “(−)” and the “serpine1 expression, TGFb/TGFbimatinib” value (LS (local skin)) was “(+)”. The “Adam12 expression, TGFb/TGFbimatinib” value (LS (local skin)) was “(+)”, the “spp1 expression, TGFb/TGFbimatinib” value (LS (local skin)) was “(+)” and the “Thbs1 expression, TGFb/TGFbimatinib” value (LS (local skin)) was “(+?)”. For the same compound, the “Col1a1 expression, TGFb/TGFbimatinib” value (LS (local skin)) was “(+)”, the “Sfrp2 expression, TGFb/TGFbimatinib” value (LS (local skin)) was “(+)” and the “acta2 expression, TGFb/TGFbimatinib” value (LS (local skin)) was “(+)”. The “Angpt2 expression, TGFb/TGFbimatinib” value (LS (local skin)) was “(+)”, the “lox expression, TGFb/TGFbimatinib” value (LS (local skin)) was “(+)” and the “Fmod expression, TGFb/TGFbimatinib” value (LS (local skin)) was “(+)”. The “Wisp1 expression, TGFb/TGFbimatinib” value (LS (local skin)) was “(+)”, the “effect of TGFβ treatment in skin” value (local skin (+) and DS+ skin (−), topical imatinib cream) was “blocked” and the “activation of TGFβ activated genes” value (mouse skin, topical imatinib cream) was “inhibits the activation of these genes”.
